The values that follow come from PubChem BioAssay AID1259407 (Chemical Carcinogenesis Research Information System (CCRIS), 2018).

The series relates to CCRIS mutagenicity, Ames/micronucleus/aberration tests. The experiment in a line: CCRIS mutagenicity studies.
[1] abbreviates: Test System: AMES SALMONELLA TYPHIMURIUM, Strain/Indicator: TA100, Metabolic Activation: NONE, Method: STANDARD PLATE.
[2] abbreviates: Test System: AMES SALMONELLA TYPHIMURIUM, Strain/Indicator: TA1535, Metabolic Activation: NONE, Method: STANDARD PLATE.
The mark [3] stands for this setting: Test System: AMES SALMONELLA TYPHIMURIUM, Strain/Indicator: TA97, Metabolic Activation: NONE, Method: PREINCUBATION
Where [4] appears, read: Test System: AMES SALMONELLA TYPHIMURIUM, Strain/Indicator: TA100, Metabolic Activation: NONE, Method: PREINCUBATION

The source made the active and inactive calls. How the calls were made is not given here.

`O=CC1CO1` (centres undefined): the mutagenic call is, setting by setting: under setting [1], “active; positive”; under setting [2], “active; positive”; (Test System: E. COLI, Strain/Indicator: WP2 UVRA, Metabolic Activation: HAMSTER, LIVER, S-9, AROCLOR 1254, Method: PREINCUBATION) “active; positive”; (Test System: E. COLI, Strain/Indicator: WP2 UVRA, Metabolic Activation: HAMSTER, LIVER, S-9, AROCLOR 1254, Method: STANDARD PLATE) “active; positive”; (Test System: E. COLI, Strain/Indicator: WP2 UVRA, Metabolic Activation: HAMSTER, LIVER, S-9, Method: PREINCUBATION) “active; positive”; (Test System: E. COLI, Strain/Indicator: WP2 UVRA, Metabolic Activation: HAMSTER, LIVER, S-9, Method: STANDARD PLATE) “active; positive”. The mutagenic call (Test System: E. COLI, Strain/Indicator: WP2 UVRA, Metabolic Activation: MOUSE, LIVER, S-9, AROCLOR 1254, Method: PREINCUBATION) is “active; positive”; the mutagenic call (Test System: E. COLI, Strain/Indicator: WP2 UVRA, Metabolic Activation: MOUSE, LIVER, S-9, AROCLOR 1254, Method: STANDARD PLATE) is “active; positive”; the mutagenic call (Test System: E. COLI, Strain/Indicator: WP2 UVRA, Metabolic Activation: MOUSE, LIVER, S-9, Method: PREINCUBATION) was “active; positive”; the mutagenic call (Test System: E. COLI, Strain/Indicator: WP2 UVRA, Metabolic Activation: MOUSE, LIVER, S-9, Method: STANDARD PLATE) is “active; positive”; the mutagenic call (Test System: E. COLI, Strain/Indicator: WP2 UVRA, Metabolic Activation: NONE, Method: PREINCUBATION) is “active; positive”; the mutagenic call (Test System: E. COLI, Strain/Indicator: WP2 UVRA, Metabolic Activation: NONE, Method: STANDARD PLATE) is “active; positive”. Further, the mutagenic call (Test System: E. COLI, Strain/Indicator: WP2 UVRA, Metabolic Activation: RAT, LIVER, S-9, AROCLOR 1254, Method: PREINCUBATION) is “active; positive”; the mutagenic call (Test System: E. COLI, Strain/Indicator: WP2 UVRA, Metabolic Activation: RAT, LIVER, S-9, AROCLOR 1254, Method: STANDARD PLATE) is “active; positive”; the mutagenic call (Test System: E. COLI, Strain/Indicator: WP2 UVRA, Metabolic Activation: RAT, LIVER, S-9, Method: PREINCUBATION) is “active; positive”; the mutagenic call (Test System: E. COLI, Strain/Indicator: WP2 UVRA, Metabolic Activation: RAT, LIVER, S-9, Method: STANDARD PLATE) was “active; positive”; the mutagenic call (Test System: UDS HUMAN FIBROBLASTS, Strain/Indicator: THY INCORP (NON-S-PHASE), Metabolic Activation: NONE, Method: LIQUID SCINTILLATION COUNTING) is “active; positive”.

As for `ClC1=C(Cl)[C@]2(Cl)C3C(Cl)C(Cl)CC3[C@@]1(Cl)C2(Cl)Cl` (some centres undefined), the mutagenic call (Test System: AMES SALMONELLA TYPHIMURIUM, Strain/Indicator: TA100, Metabolic Activation: NONE, Method: DESICCATOR) was “active; positive”.

Take `O=[N+]([O-])c1cc(NS(=O)(=O)c2cccc3cccnc23)ccc1Cl`: the mutagenic call runs as follows: (Test System: AMES SALMONELLA TYPHIMURIUM, Strain/Indicator: TA98, Metabolic Activation: NONE, Method: STANDARD PLATE) “inactive; negative”; (Test System: AMES SALMONELLA TYPHIMURIUM, Strain/Indicator: TA98, Metabolic Activation: RAT, LIVER, S-9, AROCLOR 1254, Method: STANDARD PLATE) “inactive; negative”; under setting [1], “inactive; negative”; (Test System: AMES SALMONELLA TYPHIMURIUM, Strain/Indicator: TA100, Metabolic Activation: RAT, LIVER, S-9, AROCLOR 1254, Method: STANDARD PLATE) “inactive; negative”; under setting [2], “inactive; negative”; (Test System: AMES SALMONELLA TYPHIMURIUM, Strain/Indicator: TA1535, Metabolic Activation: RAT, LIVER, S-9, AROCLOR 1254, Method: STANDARD PLATE) “inactive; negative”. The mutagenic call by setting is: (Test System: AMES SALMONELLA TYPHIMURIUM, Strain/Indicator: TA1537, Metabolic Activation: NONE, Method: STANDARD PLATE) “inactive; negative”; (Test System: AMES SALMONELLA TYPHIMURIUM, Strain/Indicator: TA1537, Metabolic Activation: RAT, LIVER, S-9, AROCLOR 1254, Method: STANDARD PLATE) “inactive; negative”.

Regarding `O=c1ccn([C@H]2C[C@H](O)[C@@H](CO)O2)c(=O)[nH]1`, the mutagenic call by setting is: under setting [3], “inactive; negative”; (Test System: AMES SALMONELLA TYPHIMURIUM, Strain/Indicator: TA97, Metabolic Activation: RAT, LIVER, S-9, AROCLOR 1254, Method: PREINCUBATION) “inactive; negative”; under setting [4], “inactive; negative”; (Test System: AMES SALMONELLA TYPHIMURIUM, Strain/Indicator: TA100, Metabolic Activation: RAT, LIVER, S-9, AROCLOR 1254, Method: PREINCUBATION) “inactive; negative”; (Test System: CHINESE HAMSTER V-79, Strain/Indicator: V-79/8-AZAGUANINE, Metabolic Activation: NONE) “inactive; negative”.

As for `CCC(O)CN` (centres undefined), the mutagenic call is, setting by setting: (Test System: AMES SALMONELLA TYPHIMURIUM, Strain/Indicator: TA97, Metabolic Activation: HAMSTER, LIVER, S-9, AROCLOR 1254 (10 OR 30%), Method: PREINCUBATION) “inactive; negative”; under setting [3], “inactive; negative”; (Test System: AMES SALMONELLA TYPHIMURIUM, Strain/Indicator: TA97, Metabolic Activation: RAT, LIVER, S-9, AROCLOR 1254 (10 OR 30%), Method: PREINCUBATION) “inactive; negative”; (Test System: AMES SALMONELLA TYPHIMURIUM, Strain/Indicator: TA98, Metabolic Activation: HAMSTER, LIVER, S-9, AROCLOR 1254 (10 OR 30%), Method: PREINCUBATION) “inactive; negative”; (Test System: AMES SALMONELLA TYPHIMURIUM, Strain/Indicator: TA98, Metabolic Activation: NONE, Method: PREINCUBATION) “inactive; negative”; (Test System: AMES SALMONELLA TYPHIMURIUM, Strain/Indicator: TA98, Metabolic Activation: RAT, LIVER, S-9, AROCLOR 1254 (10 OR 30%), Method: PREINCUBATION) “inactive; negative”. Moreover, the mutagenic call is “inactive; negative” (Test System: AMES SALMONELLA TYPHIMURIUM, Strain/Indicator: TA100, Metabolic Activation: HAMSTER, LIVER, S-9, AROCLOR 1254 (10 OR 30%), Method: PREINCUBATION); “inactive; negative” under setting [4]; “inactive; negative” (Test System: AMES SALMONELLA TYPHIMURIUM, Strain/Indicator: TA100, Metabolic Activation: RAT, LIVER, S-9, AROCLOR 1254 (10 OR 30%), Method: PREINCUBATION); “inactive; negative” (Test System: AMES SALMONELLA TYPHIMURIUM, Strain/Indicator: TA1535, Metabolic Activation: HAMSTER, LIVER, S-9, AROCLOR 1254 (10 OR 30%), Method: PREINCUBATION); “inactive; negative” (Test System: AMES SALMONELLA TYPHIMURIUM, Strain/Indicator: TA1535, Metabolic Activation: NONE, Method: PREINCUBATION); “inactive; negative” (Test System: AMES SALMONELLA TYPHIMURIUM, Strain/Indicator: TA1535, Metabolic Activation: RAT, LIVER, S-9, AROCLOR 1254 (10 OR 30%), Method: PREINCUBATION).

As to `NCCS`, the mutagenic call (End Point: IN VIVO MICRONUCLEUS, Test System: BONE MARROW POLYCHROMATIC ERYTHROCYTES, Species: MOUSE, Strain/Sex: SWISS/FEMALE, Route: IP) was “inactive; negative”; the mutagenic call under setting [4] is “inactive; negative”; the mutagenic call (Test System: Ames Salmonella typhimurium, Strain/Indicator: TA98, Metabolic Activation: None, Method: Preincubation) was “inactive; negative”; the mutagenic call (Test System: Ames Salmonella typhimurium, Strain/Indicator: TA98, Metabolic Activation: Rat, Liver, S9, Sodium phenobarbital and 5,6-benzoflavone (10%), Method: Preincubation) is “inactive; negative”; the mutagenic call (Test System: Ames Salmonella typhimurium, Strain/Indicator: TA100, Metabolic Activation: None, Method: Preincubation) is “inactive; negative”; the mutagenic call (Test System: Ames Salmonella typhimurium, Strain/Indicator: TA100, Metabolic Activation: Rat, Liver, S9, Sodium phenobarbital and 5,6-benzoflavone (10%), Method: Preincubation) was “inactive; negative”. Further, the mutagenic call is, setting by setting: (Test System: Ames Salmonella typhimurium, Strain/Indicator: TA1535, Metabolic Activation: None, Method: Preincubation) “inactive; negative”; (Test System: Ames Salmonella typhimurium, Strain/Indicator: TA1535, Metabolic Activation: Rat, Liver, S9, Sodium phenobarbital and 5,6-benzoflavone (10%), Method: Preincubation) “inactive; negative”; (Test System: Ames Salmonella typhimurium, Strain/Indicator: TA1537, Metabolic Activation: None, Method: Preincubation) “inactive; negative”; (Test System: Ames Salmonella typhimurium, Strain/Indicator: TA1537, Metabolic Activation: Rat, Liver, S9, Sodium phenobarbital and 5,6-benzoflavone (10%), Method: Preincubation) “inactive; negative”; (Test System: E. coli, Strain/Indicator: WP2uvrA/pKM101, Metabolic Activation: Rat, Liver, S9, Sodium phenobarbital and 5,6-benzoflavone (10%), Method: Preincubation) “inactive; negative”.
